Test results reported in BindingDB's records for doi:10.1074/jbc.M113.479717 (University of Manchester, 2013).

Assays:
Assay in all cases: Optical Titration Assay
Settings in all cases: pH 7
[1] = biological target: Bifunctional cytochrome P450/NADPH--P450 reductase [A82F,F87V] (Bacillus megaterium, UniProt P14779, A82F/F87V)
Protocol: (§1) Dissociation constants (Kd values) for binding of the substrates N-palmitoylglycine (NPG) and omeprazole (OMP) to WT and mutant BM3 heme domains were determined by UVvisible absorption titrations using ~1-4 μM protein in 100mMKPi, pH 7.0, at 25 °C (assay buffer) in 1-cm path length quartz cuvettes and as in our previous studies. Spectra were recorded for substrate-free enzymes and following addition of ligands during substrate titrations (typically 800 to 250 nm).

[2] = biological target: Bifunctional cytochrome P450/NADPH--P450 reductase [A82F] (Bacillus megaterium, UniProt P14779, A82F)
Chain of Bifunctional cytochrome P450/NADPH--P450 reductase [A82F] (P14779 whole entry A83F): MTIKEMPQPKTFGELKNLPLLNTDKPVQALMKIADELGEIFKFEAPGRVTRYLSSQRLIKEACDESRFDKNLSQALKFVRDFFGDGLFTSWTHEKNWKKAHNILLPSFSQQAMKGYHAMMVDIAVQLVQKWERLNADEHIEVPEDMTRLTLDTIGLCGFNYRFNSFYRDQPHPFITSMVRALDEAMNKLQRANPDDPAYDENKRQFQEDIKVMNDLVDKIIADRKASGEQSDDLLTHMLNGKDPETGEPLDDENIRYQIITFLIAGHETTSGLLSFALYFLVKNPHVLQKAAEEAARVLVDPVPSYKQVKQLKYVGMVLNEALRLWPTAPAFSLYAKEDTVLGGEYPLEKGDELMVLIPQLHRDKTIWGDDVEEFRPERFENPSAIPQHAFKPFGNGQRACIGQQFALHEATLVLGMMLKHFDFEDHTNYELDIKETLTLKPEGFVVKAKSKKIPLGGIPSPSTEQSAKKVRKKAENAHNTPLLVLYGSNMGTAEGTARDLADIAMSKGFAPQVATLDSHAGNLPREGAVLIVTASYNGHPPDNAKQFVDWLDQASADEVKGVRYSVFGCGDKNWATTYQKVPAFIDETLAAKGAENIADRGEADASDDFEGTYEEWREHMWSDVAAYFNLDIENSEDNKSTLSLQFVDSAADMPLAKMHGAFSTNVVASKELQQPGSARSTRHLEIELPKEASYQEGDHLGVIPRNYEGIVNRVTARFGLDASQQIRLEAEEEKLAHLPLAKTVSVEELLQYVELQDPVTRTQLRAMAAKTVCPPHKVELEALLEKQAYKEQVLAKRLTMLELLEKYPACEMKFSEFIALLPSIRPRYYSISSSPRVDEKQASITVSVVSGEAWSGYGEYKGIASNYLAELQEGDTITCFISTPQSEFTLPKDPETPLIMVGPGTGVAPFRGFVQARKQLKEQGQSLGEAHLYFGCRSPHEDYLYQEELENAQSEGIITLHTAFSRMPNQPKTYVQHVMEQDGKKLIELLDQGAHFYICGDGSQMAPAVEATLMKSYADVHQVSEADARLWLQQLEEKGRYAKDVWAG
Protocol: as §1

[3] = biological target: Bifunctional cytochrome P450/NADPH--P450 reductase [F87V] (Bacillus megaterium, UniProt P14779, F87V)
Chain of Bifunctional cytochrome P450/NADPH--P450 reductase [F87V] (P14779 whole entry F88V): as the sequence (P14779 whole entry A83F) above, with F83A, F88V counted along it
Protocol: as §1

[4] = biological target: T1, Bifunctional cytochrome P450/NADPH--P450 reductase (Bacillus megaterium, UniProt P14779)
T1 sequence (P14779 whole entry): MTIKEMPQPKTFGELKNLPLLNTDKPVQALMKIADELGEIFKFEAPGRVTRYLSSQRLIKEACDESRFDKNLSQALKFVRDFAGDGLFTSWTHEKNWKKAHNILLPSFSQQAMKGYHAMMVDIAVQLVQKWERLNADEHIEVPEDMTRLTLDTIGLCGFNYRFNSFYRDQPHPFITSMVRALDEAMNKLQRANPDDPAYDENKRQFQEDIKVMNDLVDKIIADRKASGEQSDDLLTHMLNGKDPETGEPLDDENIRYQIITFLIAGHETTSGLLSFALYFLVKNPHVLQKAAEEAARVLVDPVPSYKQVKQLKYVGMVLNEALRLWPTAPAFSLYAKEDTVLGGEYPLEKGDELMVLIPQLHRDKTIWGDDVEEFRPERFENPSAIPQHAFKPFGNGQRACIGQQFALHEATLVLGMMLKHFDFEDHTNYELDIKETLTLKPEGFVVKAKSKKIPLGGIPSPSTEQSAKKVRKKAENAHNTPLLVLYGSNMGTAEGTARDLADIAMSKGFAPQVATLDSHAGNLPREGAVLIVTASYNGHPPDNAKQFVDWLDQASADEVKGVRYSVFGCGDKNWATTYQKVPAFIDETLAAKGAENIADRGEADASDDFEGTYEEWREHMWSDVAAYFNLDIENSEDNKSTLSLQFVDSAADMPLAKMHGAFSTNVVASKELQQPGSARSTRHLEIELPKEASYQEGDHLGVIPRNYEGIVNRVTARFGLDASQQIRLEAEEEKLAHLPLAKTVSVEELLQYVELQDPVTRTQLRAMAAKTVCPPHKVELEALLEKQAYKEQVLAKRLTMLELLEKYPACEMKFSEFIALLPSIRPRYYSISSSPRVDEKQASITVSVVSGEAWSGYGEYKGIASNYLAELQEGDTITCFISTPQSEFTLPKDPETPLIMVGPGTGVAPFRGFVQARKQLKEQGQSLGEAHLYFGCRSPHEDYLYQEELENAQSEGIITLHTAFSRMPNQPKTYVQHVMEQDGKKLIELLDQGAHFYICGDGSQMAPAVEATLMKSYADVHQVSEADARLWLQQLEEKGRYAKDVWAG
Protocol: as §1

Chain of Bifunctional cytochrome P450/NADPH--P450 reductase [A82F,F87V] (P14779 whole entry A83F/F88V, the tested form may be a part): as the sequence (P14779 whole entry A83F) above, with F88V counted along it

Row | Compound | Kd [1] [nM] | Kd [2] [nM] | Kd [3] [µM] | Kd [4] [nM]
1 | COc1ccc2[nH]c([S+]([O-])Cc3ncc(C)c(OC)c3C)nc2c1 (configuration not stated) [H-168/68] | 212 | 1670 | 49 | –
2 | CCCCCCCCCCCCCCCC(=O)NCC(=O)O [N-palmitoylglycine (NPG)] | 4 | 297 | 0.204 | 82
